Where “and” joins values, the source holds several entries; their conditions need not be identical. Equal entries are not always repeated.

For 2 compounds, IC50 and viability, T/C results are on record in PubChem BioAssay AID1918941 (Molecular Pharmacology Branch, DTP, NCI, 2023).

The test system of the assay is SW 1271 complex spheroids, viability. Nature of the assay: Anticancer human tumor SW 1271 cell line growth inhibition [LSD1].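 On all read-outs here: spheroids exposed to agents for 7 days before luminescence read.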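 On viability, T/C: 100% = DMSO vehicle control viability.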 The conditions noted are these: for viability, T/C: stronger effect = lower value. In outline: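 Drug combinations with the LSD1 inhibitor iadademstat tested on tumor cells co-cultured as spheroids with endothelial cells and mesenchymal stem cells. Concentrations descended in half-log increments from clinical Cmax or 10 microM.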

The IC50 is the concentration needed to halve the response being measured. One may read the viability, T/C as the result in the treated group divided by that in the control group, in per cent. Regarding `COc1cc(C2c3cc4c(cc3C(OC3OC5COC(C)OC5C(O)C3O)C3COC(=O)C23)OCO4)cc(OC)c1O` (configuration not stated) + NC1CC1c1ccc(-c2cccc(O)c2)cc1, the concentration for half-maximal inhibition (IC50) was 1390 nM (curve of first compound, second compound 0.1 µM); over 3000 nM (curve of first compound, second compound 0.316 µM); 582 nM (curve of first compound, second compound 1 µM); over 3000 nM (curve of first compound, second compound 3.16 µM); 289 nM (curve of first compound, second compound 10 µM). Moreover, the viability, T/C is 84.4% (second compound 0.1 µM, first compound 0.00949 µM); 68.3% (second compound 0.1 µM, first compound 0.03 µM); 63.8% (second compound 0.1 µM, first compound 0.0949 µM); 53.7% (second compound 0.1 µM, first compound 0.3 µM); 56.7% (second compound 0.1 µM, first compound 0.949 µM); 44.4% (second compound 0.1 µM, first compound 3 µM). Besides, the viability, T/C is, setting by setting: (second compound 0.316 µM, first compound 0.00949 µM) 70.7%; (second compound 0.316 µM, first compound 0.03 µM) 58.9%; (second compound 0.316 µM, first compound 0.0949 µM) 67.7%; (second compound 0.316 µM, first compound 0.3 µM) 52.8%; (second compound 0.316 µM, first compound 0.949 µM) 49.9%; (second compound 0.316 µM, first compound 3 µM) 54%. In addition, the viability, T/C reads like this: (second compound 1 µM, first compound 0.00949 µM) 79.2%; (second compound 1 µM, first compound 0.03 µM) 67.9%; (second compound 1 µM, first compound 0.0949 µM) 62.9%; (second compound 1 µM, first compound 0.3 µM) 57.1%; (second compound 1 µM, first compound 0.949 µM) 45.8%; (second compound 1 µM, first compound 3 µM) 38%. The viability, T/C is 64.9% (second compound 3.16 µM, first compound 0.00949 µM); 55.2% (second compound 3.16 µM, first compound 0.03 µM); 61.3% (second compound 3.16 µM, first compound 0.0949 µM); 48.2% (second compound 3.16 µM, first compound 0.3 µM); 48.5% (second compound 3.16 µM, first compound 0.949 µM); 59.9% (second compound 3.16 µM, first compound 3 µM). The viability, T/C by setting is: (second compound 10 µM, first compound 0.00949 µM) 61%; (second compound 10 µM, first compound 0.03 µM) 60.9%; (second compound 10 µM, first compound 0.0949 µM) 53.1%; (second compound 10 µM, first compound 0.3 µM) 51.5%; (second compound 10 µM, first compound 0.949 µM) 41.6%; (second compound 10 µM, first compound 3 µM) 46.5%.

In the case of `Cn1ncnc1C1c2n[nH]c(=O)c3cc(F)cc(c23)NC1c1ccc(F)cc1` (configuration not stated), the viability, T/C runs as follows: (compound 0.000316 µM) 89.1% and 97.2%; (compound 0.001 µM) 94.9% and 81.7%; (compound 0.00316 µM) 87.8% and 87%; (compound 0.01 µM) 91.1% and 85%; (compound 0.0316 µM) 84.2% and 92.2%; (compound 0.1 µM) 91.7% and 99.5%. In addition, the half-maximal inhibitory concentration (IC50) (curve of compound) was over 100 nM.
